Consider two compounds from the NIST ThermoML archive (doi:10.1016/j.jct.2016.12.007).

A short description of data set [1]: wn = mass fraction of the nth substance listed. Particulars: 101.3 kPa, Liquid, Vibrating tube method.
The nature of data set [2]: refractive index (Na D-line) (dimensionless); wn = mass fraction of the nth substance listed. The note with it: 101.3 kPa, Liquid, Standard Abbe refractometry.

Numbers after ± are expanded uncertainties.

As for `[Cl-].[Na+]` [sodium chloride] + O, the mass density in data set [1] (288.15 K, w1 = 0.2622) was found to be 1201 ± 4.2 kg/m3; in data set [1] (298.15 K, w1 = 0.2625) it was 1197.8 ± 4.2 kg/m3; in data set [1] (308.15 K, w1 = 0.2666), 1193.6 ± 4.2 kg/m3. Besides, the refractive index in data set [2] (288.15 K, w1 = 0.2622) was determined as 1.3811 ± 0.0005; in data set [2] (298.15 K, w1 = 0.2625), 1.3795 ± 0.0005; in data set [2] (308.15 K, w1 = 0.2666) it was 1.3781 ± 0.0005.
`[Cl-].[Rb+]` [rubidium chloride] + O: the mass density in data set [1] (288.15 K, w1 = 0.4695) worked out at 1480.4 ± 4.3 kg/m3; in data set [1] (298.15 K, w1 = 0.4841) it was 1500.3 ± 4.3 kg/m3; in data set [1] (308.15 K, w1 = 0.5041), 1517.5 ± 4.3 kg/m3. The refractive index in data set [2] (288.15 K, w1 = 0.4695) came to 1.3874 ± 0.0005; in data set [2] (298.15 K, w1 = 0.4841), 1.3883 ± 0.0005; in data set [2] (308.15 K, w1 = 0.5041), 1.3894 ± 0.0005.
